Experimental data: patent publication US20240366598A1, “GLUCOSE-DEPENDENT INSULINOTROPIC POLYPEPTIDE RECEPTOR ANTAGONISTS AND USES THEREOF” (Pfizer Inc., priority 2023, published 2024)

Molecular target: T1, human Glucose-dependent Insulinotropic Polypeptide Receptor (hGIPR) (Homo sapiens, UniProt P48546)
T1 sequence (P48546 22-466): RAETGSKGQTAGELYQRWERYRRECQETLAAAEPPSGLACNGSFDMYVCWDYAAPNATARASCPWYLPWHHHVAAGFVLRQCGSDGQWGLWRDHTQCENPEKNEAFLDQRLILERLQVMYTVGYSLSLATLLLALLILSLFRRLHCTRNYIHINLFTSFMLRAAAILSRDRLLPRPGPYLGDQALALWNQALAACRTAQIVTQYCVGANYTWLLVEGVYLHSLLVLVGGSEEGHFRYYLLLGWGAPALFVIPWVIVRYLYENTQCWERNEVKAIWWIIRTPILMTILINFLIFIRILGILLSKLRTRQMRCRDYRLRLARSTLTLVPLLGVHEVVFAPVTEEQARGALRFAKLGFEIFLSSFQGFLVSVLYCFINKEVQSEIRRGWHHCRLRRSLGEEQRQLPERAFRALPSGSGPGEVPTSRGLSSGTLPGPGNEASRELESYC
Experiment: Functional in vitro GIPR antagonist potency assay (cAMP HTRF, CHO-K1 cells stably expressing hGIPR, hGIP stimulation at about EC80)
Assay type: cell-based
Conditions: geometric mean, hGIP at estimated EC80, examples marked ^2: overall geometric mean of multiple forms (including salts) tested
How it was run: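 HTRF quantification of cAMP after stimulation with hGIP at an estimated EC80 for 30 min at 37 °C. Before stimulation, hGIPR-expressing CHO-K1 cells were exposed 2 h to test compound in IBMX-containing buffer, with 0.5% DMSO final. Percent effect is referenced to agonist alone (0%) and to 80 μM of a reference antagonist (100%), and runs required the agonist concentration to fall within the on-the-day EC50–EC90.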

Compound | IC50 [nM]
CC(C)c1ccc(NC(=O)N2CCC[C@@H]2C(=O)Nc2ccc(-c3ccc(C(=O)O)c(C(F)(F)F)c3)cc2)cc1 [Example 68, 4′-[(1-{[4-(propan-2-yl)phenyl]carbamoyl}-D-prolyl)amino]-3-(trifluoromethyl)[1,1′-biphenyl]-4-carboxylic acid] | 38
Cc1cc(-c2ccc(NC(=O)[C@H]3CCCN3C(=O)Nc3ccc(C(C)C)cc3)cc2)cc(F)c1C(=O)O [Example 69, 3-fluoro-5-methyl-4′-[(1-{[4-(propan-2-yl)phenyl]carbamoyl}-D-prolyl)amino][1,1′-biphenyl]-4-carboxylic acid] | 47
CC(C)c1ccc(NC(=O)N2CCC[C@@H]2C(=O)Nc2ccc(-c3cc(F)c(C(=O)O)cc3Cl)cc2)cc1 [Example 70, 2-chloro-5-fluoro-4′-[(1-{[4-(propan-2-yl)phenyl]carbamoyl}-D-prolyl)amino][1,1′-biphenyl]-4-carboxylic acid] | 49
CC(C)c1ccc(NC(=O)N2CCC[C@@H]2C(=O)Nc2ccc(-c3ccc(C(=O)O)cc3C(C)C)cc2)cc1 [Example 71, 2-(propan-2-yl)-4′-[(1-{[4-(propan-2-yl)phenyl]carbamoyl}-D-prolyl)amino][1,1′-biphenyl]-4-carboxylic acid] | 2.5
O=C(O)c1ccc(-c2ccc(NC(=O)[C@H]3CCCN3C(=O)Nc3ccc(C(F)(F)F)nc3)cc2)cc1 [Example 72, 4′-[(1-{[6-(trifluoromethyl)pyridin-3-yl]carbamoyl}-D-prolyl)amino][1,1′-biphenyl]-4-carboxylic acid] | 69
O=C(O)c1ccc(-c2ccc(NC(=O)[C@H]3CCCN3C(=O)Nc3ccc(Cl)c(Cl)c3)cc2)cc1 [Example 73, 4′-({1-[(3,4-dichlorophenyl)carbamoyl]-D-prolyl}amino)[1,1′-biphenyl]-4-carboxylic acid] | 12
O=C(O)c1ccc(-c2ccc(NC(=O)[C@H]3CCCN3C(=O)Nc3cccc(Cl)c3)cc2)cc1 [Example 74, 4′-({1-[(3-chlorophenyl)carbamoyl]-D-prolyl}amino)[1,1′-biphenyl]-4-carboxylic acid] | 82
CC(C)c1ccc(NC(=O)N2CCC[C@@H]2C(=O)Nc2ccc(-c3cccc(C(=O)O)n3)c(F)c2)cc1 [Example 75, 6-{2-fluoro-4-[(1-{[4-(propan-2-yl)phenyl]carbamoyl}-D-prolyl)amino]phenyl}pyridine-2-carboxylic acid] | 140
Cc1cc(NC(=O)[C@H]2CCCN2C(=O)Nc2ccc(C(C)C)cc2)ccc1-c1ccc(C(=O)O)cc1 [Example 76, 2′-methyl-4′-[(1-{[4-(propan-2-yl)phenyl]carbamoyl}-D-prolyl)amino][1,1′-biphenyl]-4-carboxylic acid] | 9.9
CC(C)c1ccc(NC(=O)N2CCC[C@@H]2C(=O)Nc2ccc(-c3cccc(C(=O)O)c3)cn2)cc1 [Example 77, 3-{6-[(1-{[4-(propan-2-yl)phenyl]carbamoyl}-D-prolyl)amino]pyridin-3-yl}benzoic acid] | 16
CC(C)c1ccc(NC(=O)N2CCC[C@@H]2C(=O)Nc2ccc(-c3cccc(C(=O)O)c3)nc2)cc1 [Example 78, 3-{5-[(1-{[4-(propan-2-yl)phenyl]carbamoyl}-D-prolyl)amino]pyridin-2-yl}benzoic acid] | 145
CC(C)c1ccc(NC(=O)N2CCC[C@@H]2C(=O)Nc2ccc(-c3ccc(C(=O)O)cc3Cl)cc2)cc1 [Example 79, 2-chloro-4′-[(1-{[4-(propan-2-yl)phenyl]carbamoyl}-D-prolyl)amino][1,1′-biphenyl]-4-carboxylic acid] | 15
CC(C)c1ccc(NC(=O)N2CCC[C@@H]2C(=O)Nc2ccc(-c3c(F)ccc(C(=O)O)c3F)cc2)cc1 [Example 80, 2,6-difluoro-4′-[(1-{[4-(propan-2-yl)phenyl]carbamoyl}-D-prolyl)amino][1,1′-biphenyl]-3-carboxylic acid] | 400
COc1cc(C(=O)O)c(F)cc1-c1ccc(NC(=O)[C@H]2CCCN2C(=O)Nc2ccc(C(C)C)cc2)cc1 [Example 81, 5-fluoro-2-methoxy-4′-[(1-{[4-(propan-2-yl)phenyl]carbamoyl}-D-prolyl)amino][1,1′-biphenyl]-4-carboxylic acid] | 210
CC(C)c1ccc(NC(=O)N2CCC[C@@H]2C(=O)Nc2ccc(-c3cc(F)c(C(=O)O)cc3F)cc2)cc1 [Example 82, 2,5-difluoro-4′-[(1-{[4-(propan-2-yl)phenyl]carbamoyl}-D-prolyl)amino][1,1′-biphenyl]-4-carboxylic acid] | 27
CC(C)c1ccc(NC(=O)N2CCC[C@@H]2C(=O)Nc2ccc(-c3cc(F)c(C(=O)O)c(Cl)c3)cc2)cc1 [Example 83, 3-chloro-5-fluoro-4′-[(1-{[4-(propan-2-yl)phenyl]carbamoyl}-D-prolyl)amino][1,1′-biphenyl]-4-carboxylic acid] | 230
Cc1cc(C(=O)O)c(F)cc1-c1ccc(NC(=O)[C@H]2CCCN2C(=O)Nc2ccc(C(C)C)cc2)cc1 [Example 84, 5-fluoro-2-methyl-4′-[(1-{[4-(propan-2-yl)phenyl]carbamoyl}-D-prolyl)amino][1,1′-biphenyl]-4-carboxylic acid] | 19
CC(C)c1ccc(NC(=O)N2CCC[C@@H]2C(=O)Nc2ccc(-c3cc(F)cc(C(=O)O)c3)cc2)cc1 [Example 85, 5-fluoro-4′-[(1-{[4-(propan-2-yl)phenyl]carbamoyl}-D-prolyl)amino][1,1′-biphenyl]-3-carboxylic acid] | 260
Cc1cc(-c2ccc(NC(=O)[C@H]3CCCN3C(=O)Nc3ccc(C(C)C)cc3)cc2)c(F)cc1C(=O)O [Example 86, 2-fluoro-5-methyl-4′-[(1-{[4-(propan-2-yl)phenyl]carbamoyl}-D-prolyl)amino][1,1′-biphenyl]-4-carboxylic acid] | 7.5
Cc1c(C(=O)O)ccc(-c2ccc(NC(=O)[C@H]3CCCN3C(=O)Nc3ccc(C(C)C)cc3)cc2)c1F [Example 87, 2-fluoro-3-methyl-4′-[(1-{[4-(propan-2-yl)phenyl]carbamoyl}-D-prolyl)amino][1,1′-biphenyl]-4-carboxylic acid] | 11
CC(C)c1ccc(NC(=O)N2CCC[C@@H]2C(=O)Nc2ccc(-c3ccc(F)c(C(=O)O)c3F)cc2)cc1 [Example 88, 2,4-difluoro-4′-[(1-{[4-(propan-2-yl)phenyl]carbamoyl}-D-prolyl)amino][1,1′-biphenyl]-3-carboxylic acid] | 430
COc1cc(-c2ccc(NC(=O)[C@H]3CCCN3C(=O)Nc3ccc(C(C)C)cc3)cc2)c(F)cc1C(=O)O [Example 89, 2-fluoro-5-methoxy-4′-[(1-{[4-(propan-2-yl)phenyl]carbamoyl}-D-prolyl)amino][1,1′-biphenyl]-4-carboxylic acid] | 18
Cc1cc(C(=O)O)cc(Cl)c1-c1ccc(NC(=O)[C@H]2CCCN2C(=O)Nc2ccc(C(C)C)cc2)cc1 [Example 90, 2-chloro-6-methyl-4′-[(1-{[4-(propan-2-yl)phenyl]carbamoyl}-D-prolyl)amino][1,1′-biphenyl]-4-carboxylic acid] | 45
CC(C)c1ccc(NC(=O)N2CCC[C@@H]2C(=O)Nc2ccc(-c3ccc(C(N)=O)cc3)cc2)cc1 [Example 91, (2R)-N^2-(4′-carbamoyl[1,1′-biphenyl]-4-yl)-N^1-[4-(propan-2-yl)phenyl]pyrrolidine-1,2-dicarboxamide] | 39
COc1cc(C(=O)O)cc(C)c1-c1ccc(NC(=O)[C@H]2CCCN2C(=O)Nc2ccc(C(C)C)cc2)cc1 [Example 92, 2-methoxy-6-methyl-4′-[(1-{[4-(propan-2-yl)phenyl]carbamoyl}-D-prolyl)amino][1,1′-biphenyl]-4-carboxylic acid] | 87
COc1ccc(-c2ccc(NC(=O)[C@H]3CCCN3C(=O)Nc3ccc(C(C)C)cc3)cc2)cc1C(=O)O [Example 93, 4-methoxy-4′-[(1-{[4-(propan-2-yl)phenyl]carbamoyl}-D-prolyl)amino][1,1′-biphenyl]-3-carboxylic acid] | 79
Cc1ccc(C(=O)O)cc1-c1ccc(NC(=O)[C@H]2CCCN2C(=O)Nc2ccc(C(C)C)cc2)cc1 [Example 94, 6-methyl-4′-[(1-{[4-(propan-2-yl)phenyl]carbamoyl}-D-prolyl)amino][1,1′-biphenyl]-3-carboxylic acid] | 190
CCc1cc(-c2ccc(NC(=O)[C@H]3CCCN3C(=O)Nc3ccc(C(C)C)cc3)cc2)ccc1C(=O)O [Example 95, 3-ethyl-4′-[(1-{[4-(propan-2-yl)phenyl]carbamoyl}-D-prolyl)amino][1,1′-biphenyl]-4-carboxylic acid] | 13
CC(C)c1ccc(NC(=O)N2CCC[C@@H]2C(=O)Nc2ccc(-c3ccc(O)c(Cl)c3)cc2)cc1 [Example 96, (2R)-N^2-(3′-chloro-4′-hydroxy[1,1′-biphenyl]-4-yl)-N^1-[4-(propan-2-yl)phenyl]pyrrolidine-1,2-dicarboxamide] | 180
Cc1cc(O)ccc1-c1ccc(NC(=O)[C@H]2CCCN2C(=O)Nc2ccc(C(C)C)cc2)cc1 [Example 97, (2R)-N^2-(4′-hydroxy-2′-methyl[1,1′-biphenyl]-4-yl)-N^1-[4-(propan-2-yl)phenyl]pyrrolidine-1,2-dicarboxamide] | 230
